In patent US20140296338A1, “PROPHYLACTIC AND/OR THERAPEUTIC AGENT FOR CARDIOVASCULAR COMPLICATIONS OF DIABETES” (priority 2011, published 2014):

Tested on: dermal fibroblast
Experiment: Influence of fatty acids on intracellular neutral lipid content of dermal fibroblast from diabetic patient, enzyme assay
Type: cell-based, human
Set-up: Intracellular TG-decreasing activity: scale not given here
Details: for Intracellular TG-decreasing activity: based on part of the results in FIG. 4 and FIG. 5; for Activity to decrease intracellular TG: comparison of medium-chain fatty acids (FIG. 5); for Intracellular TG (neutral lipid) content: fatty acid added at 50 and 500 μM, cells collected 2 days later, versus no fatty acid (FIG. 4)
From the text: With the consent of the diabetic patient in Example 3, part of dermal tissue was harvested and was then subjected to primary culture (culture medium: DMEM/10% FBS) by Explant method, followed by repeated subculture to give a cell line. The resulting dermal fibroblast was examined for the influence of various fatty acids on an intracellular neutral lipid content. Specifically, the dermal specimen harvested from the patient was subjected to an in vitro enzyme assay using various fatty acids to measure an intracellular neutral lipid content. The enzyme assay was performed using a triglyceride quantification kit (manufacturer: BioVision, Inc., product code: K622-100). […] To the patient's cells, the various fatty acids were added, and 2 days later, the cells were collected. In the figures, (-) is a specimen to which no fatty acid was added (cultured as a control in DMEM/10% FBS alone). C16:0 is palmitic acid, C18:1 is oleic acid, C18:2 is linoleic acid, C20:4 is arachidonic acid, C20:5 is eicosapentaenoic acid (EPA), C7:0 is heptanoic acid, C8:0 is caprylic acid, and C10:0 is capric acid.

Activity to decrease intracellular TG	Intracellular TG (neutral lipid) content	Structure (SMILES)	Intracellular TG-decreasing activity
great activity to decrease TG		CC(C)CCCCCCC(=O)O [8-methylnonanoic acid]	100
	increased	CCCCCCC(=O)O [heptanoic acid, reference compound]	0
		CCCCCCCC(=O)O [caprylic acid]	5
great activity to decrease TG	decreased	CCCCCCCCCC(=O)O [capric acid]	100
